Results as given in patent US6492398B1, “Thiazoloindolinone compounds” (SmithKline Beechman Corporation, priority 1999, dated 2002).
In brackets after ≈: the same amount, converted by molar mass.

Key:
[1] = Crystallization determinations, solubility comments (Table IV); type: physicochemical; details: for Solubility (Comments): evaporation at 25° C.
Experimental: Recrystallization procedures for the respective forms were carried out in each case with the compound being dissolved in the selected solvent and stored at ambient temperature (e.g., 25° C.) until the solvent evaporated. The solid residue was then analyzed by x-ray diffraction.
In the respective anti-solvent determinations, the compound was dissolved in a selected solvent at 25° C., and water or alcohol was added to precipitate a solid. The solid was analyzed by x-ray diffraction.
The compound 4-(((7-oxo-6,7-dihydro-8H-[1,3]thiazolo[5,4-e]indol-8-ylidene)-methyl)amino)-N-(4-pyridinylmethyl) benzenesulfonamide was subjected to crystallization determinations using various solvents and methods of crystallization as described in Table IV below.
In the case of solvent that are relatively non-volatile (DMSO, DMF), complete evaporation was difficult to achieve at […] The presence of solvent was evident as an amorphous hump in the PXRD pattern. Cooling at 5° C. was less successful than the other crystallization approaches as a consequence of the low solubility of 4-(((7 oxo-6,7-dihydro-8H [1,3]thiazolo[5,4-e]indol-8-ylidene)methyl)amino)-N-(4-pyridinylmethyl) benzenesulfonamide under such conditions.

[2] = Solubilities in solvent media (PEG 400, transcutol, methanol); type: physicochemical
Description: The solubilities (in milligrams per milliliter, mg/mL) of the Form A compound in polyethylene glycol 400, transcutol and methanol solvents are as follows:
The solubilities (in milligrams per milliliter, mg/mL) of Form B in polyethylene glycol 400, transcutol and methanol solvents are as follows: […]

Compound | Solubility ([1]; organic solvent or mixture, solvent ethyl acetate, cooling at 5° C.) [µg/mL] | Solubility (Comments) ([1]; solvent pyridine) | Solubility ([2]; polyethylene glycol 400, organic solvent or mixture, solvent PEG 400 (polyethylene glycol 400), read-out: Solubility) [µg/mL] | Solubility ([2]; solvent methanol) [µg/mL] | Solubility ([2]; transcutol, organic solvent or mixture, solvent transcutol, read-out: Solubility) [µg/mL] | Solubility (Comments) ([1]; solvent ethyl acetate) | Solubility ([2]; solvent PEG 400 (polyethylene glycol 400)) [µg/mL] | Solubility ([2]; solvent transcutol) [µg/mL]
O=C1Nc2ccc3ncsc3c2C1=CNc1ccc(S(=O)(=O)NCc2ccncc2)cc1 [Form A, 4-{[(7-oxo-6,7-dihydro8H-[1,3]thiazolo[5,4-e]indol-8-ylidene)methyl]amino}-N-(4-pyridinylmethyl)-benzenesulfonamide] | < 60 | low | 4760 (≈ 10.3 mM) | 300 (≈ 0.647 mM) | 3150 (≈ 6.8 mM) |  |  | 
O=C1Nc2ccc3ncsc3c2C1=CNc1ccc(S(=O)(=O)NCc2ccncc2)cc1 [Form B, 4-{[(7-oxo-6,7-dihydro-8H-[1,3]thiazolo[5,4-e]indol-8-ylidene)methyl]amino}-N-(4-pyridinylmethyl)-benzenesulfonamide] |  |  |  | 80 (≈ 0.173 mM) |  | low | 4500 (≈ 9.71 mM) | 2770 (≈ 5.98 mM)
